The term IC50 denotes the midpoint of a concentration-inhibition curve. A high value points to weaker potency in that assay. By solubility is commonly meant the concentration that dissolves in the medium under given conditions. Low values mean little dissolved substance, high ones much dissolved substance. For orientation: half-life means how long it takes for the measured level to halve.

Data on 12 molecules can be found in ChEMBL document CHEMBL1143298, “Second generation 4-(4-methyl-1H-indol-5-ylamino)-2-phenylthieno[2,3-b]pyridine-5-carbonitrile PKCtheta inhibitors” (Bioorg Med Chem Lett, 2009).

SMILES strings stand for the structures. In brackets after ≈: the same amount, converted by molar mass.

Data set [1] in a line: Inhibition of VEGFR.
Data set [2] deals with Proto-oncogene tyrosine-protein kinase Src (Homo sapiens, UniProt P12931). Description: Inhibition of Src.
The target in data set [3] is Protein kinase C beta type (Homo sapiens, UniProt P05771). Nature of the data set: Inhibition of human full length PKCbeta.
Protein kinase C beta type, sequence (P05771 whole entry): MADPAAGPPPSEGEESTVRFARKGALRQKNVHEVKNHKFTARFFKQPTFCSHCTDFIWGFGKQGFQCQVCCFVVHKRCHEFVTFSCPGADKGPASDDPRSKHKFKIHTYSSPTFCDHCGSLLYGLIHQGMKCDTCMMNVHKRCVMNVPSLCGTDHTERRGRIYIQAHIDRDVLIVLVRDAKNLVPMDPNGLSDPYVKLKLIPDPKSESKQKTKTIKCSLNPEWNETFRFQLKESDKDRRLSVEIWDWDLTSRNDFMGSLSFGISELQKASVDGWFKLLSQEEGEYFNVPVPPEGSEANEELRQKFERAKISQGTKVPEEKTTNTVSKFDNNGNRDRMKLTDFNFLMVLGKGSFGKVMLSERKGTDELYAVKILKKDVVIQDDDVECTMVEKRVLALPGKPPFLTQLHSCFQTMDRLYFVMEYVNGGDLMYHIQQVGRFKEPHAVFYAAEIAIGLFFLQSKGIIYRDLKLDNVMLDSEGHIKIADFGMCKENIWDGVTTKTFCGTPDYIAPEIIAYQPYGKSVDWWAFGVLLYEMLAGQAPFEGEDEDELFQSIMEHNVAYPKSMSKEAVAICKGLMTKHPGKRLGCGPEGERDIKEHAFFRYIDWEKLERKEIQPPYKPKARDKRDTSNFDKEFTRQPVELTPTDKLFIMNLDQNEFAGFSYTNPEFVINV
Data set [4] addresses Protein kinase C delta type (Homo sapiens, UniProt Q05655). Nature of the data set: Inhibition of human full length PKCdelta.
Data set [5] can be described thus: Solubility at pH 7.4. It counts as physicochemical. Conditions: buffer.
The nature of data set [6]: Metabolic stability in mouse liver microsomes. The format is ADME, Microsome.
Data set [7] deals with Protein kinase C eta type (Homo sapiens, UniProt P24723). Nature of the data set: Inhibition of human full length PKCeta.
Protein kinase C eta type, sequence (P24723 whole entry): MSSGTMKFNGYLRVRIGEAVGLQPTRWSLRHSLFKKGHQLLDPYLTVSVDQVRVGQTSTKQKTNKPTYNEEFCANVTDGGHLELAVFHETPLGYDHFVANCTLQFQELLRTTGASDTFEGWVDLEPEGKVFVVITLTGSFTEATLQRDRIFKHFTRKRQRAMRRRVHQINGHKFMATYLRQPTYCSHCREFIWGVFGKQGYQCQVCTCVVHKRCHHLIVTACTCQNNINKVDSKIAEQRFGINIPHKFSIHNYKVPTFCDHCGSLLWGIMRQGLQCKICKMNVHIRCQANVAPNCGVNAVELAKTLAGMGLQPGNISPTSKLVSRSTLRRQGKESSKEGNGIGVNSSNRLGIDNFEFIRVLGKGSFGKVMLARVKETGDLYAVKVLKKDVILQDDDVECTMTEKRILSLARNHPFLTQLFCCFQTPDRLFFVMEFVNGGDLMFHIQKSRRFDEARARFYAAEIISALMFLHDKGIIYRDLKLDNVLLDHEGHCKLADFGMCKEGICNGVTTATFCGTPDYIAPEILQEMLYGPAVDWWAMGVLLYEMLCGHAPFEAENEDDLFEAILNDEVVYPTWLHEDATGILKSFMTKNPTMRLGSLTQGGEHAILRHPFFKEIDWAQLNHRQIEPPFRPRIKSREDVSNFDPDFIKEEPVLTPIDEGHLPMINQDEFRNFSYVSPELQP
Data set [8] addresses Tyrosine-protein kinase HCK (Homo sapiens, UniProt P08631). Description: Inhibition of Hck.
Data set [9] has as its target T1, Protein kinase C epsilon type (Homo sapiens, UniProt Q02156).
T1 sequence (Q02156 whole entry): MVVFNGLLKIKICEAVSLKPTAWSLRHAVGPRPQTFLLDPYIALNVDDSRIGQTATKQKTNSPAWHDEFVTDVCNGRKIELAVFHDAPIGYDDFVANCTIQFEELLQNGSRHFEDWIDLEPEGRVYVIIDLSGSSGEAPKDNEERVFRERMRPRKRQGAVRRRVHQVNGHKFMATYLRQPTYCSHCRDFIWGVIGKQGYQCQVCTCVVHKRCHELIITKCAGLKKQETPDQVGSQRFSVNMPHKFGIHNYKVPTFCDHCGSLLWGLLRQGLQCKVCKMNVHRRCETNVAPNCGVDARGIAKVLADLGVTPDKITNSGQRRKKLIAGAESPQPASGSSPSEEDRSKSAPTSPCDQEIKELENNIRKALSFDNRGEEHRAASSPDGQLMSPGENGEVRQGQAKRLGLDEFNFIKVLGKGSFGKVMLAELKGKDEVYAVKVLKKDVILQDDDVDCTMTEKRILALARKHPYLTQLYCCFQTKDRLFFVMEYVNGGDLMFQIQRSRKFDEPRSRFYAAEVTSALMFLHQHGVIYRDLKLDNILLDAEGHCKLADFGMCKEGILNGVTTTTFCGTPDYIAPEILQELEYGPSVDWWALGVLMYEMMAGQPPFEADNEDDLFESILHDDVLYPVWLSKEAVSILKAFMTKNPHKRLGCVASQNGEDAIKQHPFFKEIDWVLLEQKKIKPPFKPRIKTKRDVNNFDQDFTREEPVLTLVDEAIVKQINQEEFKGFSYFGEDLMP
Description: Inhibition of human full length PKCepsilon.

Data set [10] is described as follows: Metabolic stability in human liver microsomes. It counts as ADME, Microsome. In general terms: Liver microsomes are vesicles of endoplasmic reticulum, rich in cytochrome P450 enzymes.
For data set [11], the target named is Tyrosine-protein kinase Fyn (Homo sapiens, UniProt P06241). Nature of the data set: Inhibition of Fyn.
Tyrosine-protein kinase Fyn, sequence (P06241 whole entry): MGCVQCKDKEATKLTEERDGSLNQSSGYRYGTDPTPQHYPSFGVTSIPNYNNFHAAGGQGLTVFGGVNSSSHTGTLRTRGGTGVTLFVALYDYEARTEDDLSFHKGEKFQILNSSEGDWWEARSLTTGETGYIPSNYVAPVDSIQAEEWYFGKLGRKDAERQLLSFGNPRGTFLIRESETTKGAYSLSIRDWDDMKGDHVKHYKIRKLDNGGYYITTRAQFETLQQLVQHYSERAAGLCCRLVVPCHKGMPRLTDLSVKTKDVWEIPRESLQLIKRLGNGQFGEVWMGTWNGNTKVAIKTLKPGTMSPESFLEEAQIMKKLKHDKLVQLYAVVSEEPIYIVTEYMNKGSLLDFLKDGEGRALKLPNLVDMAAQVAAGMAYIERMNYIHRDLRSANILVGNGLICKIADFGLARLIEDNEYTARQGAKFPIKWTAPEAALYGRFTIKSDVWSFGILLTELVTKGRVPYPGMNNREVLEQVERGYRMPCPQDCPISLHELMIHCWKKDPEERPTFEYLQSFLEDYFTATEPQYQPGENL
The target of data set [12] is MAP kinase-activated protein kinase 2 (Homo sapiens, UniProt P49137). Nature of the data set: Inhibition of MK2.
MAP kinase-activated protein kinase 2, sequence (P49137 whole entry): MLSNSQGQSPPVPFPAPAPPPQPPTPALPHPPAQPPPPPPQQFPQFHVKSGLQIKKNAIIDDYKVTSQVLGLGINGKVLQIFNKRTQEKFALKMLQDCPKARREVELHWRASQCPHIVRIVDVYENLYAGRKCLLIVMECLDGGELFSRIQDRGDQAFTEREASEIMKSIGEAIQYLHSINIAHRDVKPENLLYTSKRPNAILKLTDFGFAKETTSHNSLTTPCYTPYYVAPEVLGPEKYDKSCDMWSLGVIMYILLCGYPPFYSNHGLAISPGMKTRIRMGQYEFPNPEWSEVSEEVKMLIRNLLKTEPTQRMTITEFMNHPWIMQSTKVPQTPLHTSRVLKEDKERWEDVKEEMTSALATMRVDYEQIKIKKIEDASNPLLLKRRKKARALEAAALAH
Data set [13] in a line: Metabolic stability in rat liver microsomes. The format is ADME, Microsome.
The target of data set [14] is Tyrosine-protein kinase Lyn (Homo sapiens, UniProt P07948). Description: Inhibition of Lyn.
Tyrosine-protein kinase Lyn, sequence (P07948 whole entry): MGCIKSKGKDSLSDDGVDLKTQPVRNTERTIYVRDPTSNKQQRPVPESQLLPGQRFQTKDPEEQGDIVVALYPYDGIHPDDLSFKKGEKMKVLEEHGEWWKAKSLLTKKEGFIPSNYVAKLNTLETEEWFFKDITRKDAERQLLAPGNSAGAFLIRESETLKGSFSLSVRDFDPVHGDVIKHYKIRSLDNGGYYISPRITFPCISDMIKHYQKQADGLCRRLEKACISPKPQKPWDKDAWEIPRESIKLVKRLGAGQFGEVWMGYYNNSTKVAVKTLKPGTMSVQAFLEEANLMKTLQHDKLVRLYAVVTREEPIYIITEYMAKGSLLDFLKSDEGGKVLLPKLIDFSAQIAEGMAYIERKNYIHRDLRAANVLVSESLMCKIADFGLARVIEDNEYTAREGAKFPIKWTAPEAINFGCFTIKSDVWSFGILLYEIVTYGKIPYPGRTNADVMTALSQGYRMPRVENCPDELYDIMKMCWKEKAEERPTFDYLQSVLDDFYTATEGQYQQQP
The nature of data set [15]: Inhibition of PDGFR.
Data set [16] can be described thus: Membrane permeability by PAMPA. It counts as ADME. The note with it: read-out: permeability. A general note: In PAMPA a lipid-coated filter parts donor from acceptor wells.
Data set [17] is described as follows: Inhibition of p38.
The species entered for the next data set is Homo sapiens. Description: Selectivity ratio of IC50 for human full length PKCdelta to IC50 for human full length PKCtheta.
In data set [18] the target is Protein kinase C theta type (Homo sapiens, UniProt Q04759). Nature of the data set: Inhibition of human full length PKCtheta.
Protein kinase C theta type, sequence (Q04759 whole entry): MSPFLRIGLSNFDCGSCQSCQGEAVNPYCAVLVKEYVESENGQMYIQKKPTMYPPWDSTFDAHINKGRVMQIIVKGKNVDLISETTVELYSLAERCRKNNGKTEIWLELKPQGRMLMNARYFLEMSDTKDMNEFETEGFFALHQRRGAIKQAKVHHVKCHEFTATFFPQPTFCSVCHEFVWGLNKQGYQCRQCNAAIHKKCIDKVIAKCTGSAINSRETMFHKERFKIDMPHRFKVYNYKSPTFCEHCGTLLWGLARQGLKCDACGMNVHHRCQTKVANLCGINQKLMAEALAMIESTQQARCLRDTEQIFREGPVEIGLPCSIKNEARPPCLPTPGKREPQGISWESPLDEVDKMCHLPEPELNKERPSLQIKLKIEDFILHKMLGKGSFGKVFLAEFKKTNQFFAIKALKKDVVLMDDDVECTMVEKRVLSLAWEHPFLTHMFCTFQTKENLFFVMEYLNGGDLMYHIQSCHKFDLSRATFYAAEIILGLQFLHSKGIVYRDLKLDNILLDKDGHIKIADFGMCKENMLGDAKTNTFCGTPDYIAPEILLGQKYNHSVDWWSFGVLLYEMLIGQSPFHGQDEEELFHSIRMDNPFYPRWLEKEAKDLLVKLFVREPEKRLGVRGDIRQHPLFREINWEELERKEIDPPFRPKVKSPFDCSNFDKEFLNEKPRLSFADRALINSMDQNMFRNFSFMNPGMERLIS
Data set [19] addresses Tyrosine-protein kinase Lck (Homo sapiens, UniProt P06239).

Protein kinase C delta type, sequence (Q05655 whole entry): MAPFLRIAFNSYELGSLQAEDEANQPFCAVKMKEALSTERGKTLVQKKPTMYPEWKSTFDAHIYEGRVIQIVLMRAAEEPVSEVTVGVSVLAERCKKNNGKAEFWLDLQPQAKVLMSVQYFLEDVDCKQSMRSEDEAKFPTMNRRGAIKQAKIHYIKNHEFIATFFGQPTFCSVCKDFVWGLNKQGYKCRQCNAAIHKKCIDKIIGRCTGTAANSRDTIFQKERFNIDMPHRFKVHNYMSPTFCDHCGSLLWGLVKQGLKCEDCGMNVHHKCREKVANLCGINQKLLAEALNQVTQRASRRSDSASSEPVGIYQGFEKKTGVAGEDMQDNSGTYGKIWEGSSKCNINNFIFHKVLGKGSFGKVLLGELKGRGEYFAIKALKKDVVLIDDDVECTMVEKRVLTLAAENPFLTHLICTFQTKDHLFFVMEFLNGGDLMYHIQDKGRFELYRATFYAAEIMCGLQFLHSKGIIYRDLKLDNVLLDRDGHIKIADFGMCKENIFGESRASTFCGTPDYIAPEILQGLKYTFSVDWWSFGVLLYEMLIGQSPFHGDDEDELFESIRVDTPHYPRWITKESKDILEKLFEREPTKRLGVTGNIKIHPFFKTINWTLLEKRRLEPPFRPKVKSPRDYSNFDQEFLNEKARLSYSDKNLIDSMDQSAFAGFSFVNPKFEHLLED
Tyrosine-protein kinase Lck, sequence (P06239 whole entry): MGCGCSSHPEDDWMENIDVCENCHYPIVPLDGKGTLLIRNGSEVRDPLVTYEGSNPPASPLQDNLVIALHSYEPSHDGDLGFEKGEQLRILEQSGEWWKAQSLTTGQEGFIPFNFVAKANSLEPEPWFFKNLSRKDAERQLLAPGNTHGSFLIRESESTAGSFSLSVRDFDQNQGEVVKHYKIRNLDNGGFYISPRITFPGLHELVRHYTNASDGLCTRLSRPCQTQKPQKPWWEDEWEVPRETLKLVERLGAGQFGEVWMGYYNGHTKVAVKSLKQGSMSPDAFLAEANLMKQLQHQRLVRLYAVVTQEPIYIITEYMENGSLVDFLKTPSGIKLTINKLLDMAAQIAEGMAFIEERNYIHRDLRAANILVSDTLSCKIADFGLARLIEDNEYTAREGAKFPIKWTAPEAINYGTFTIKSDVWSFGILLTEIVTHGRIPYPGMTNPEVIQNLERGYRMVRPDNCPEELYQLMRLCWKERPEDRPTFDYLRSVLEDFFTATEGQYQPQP

For `COc1ccc(CN(C)C)c(-c2cc3c(Nc4ccc5[nH]ccc5c4C)c(C#N)cnc3s2)c1`, the IC50 in data set [1] was over 5 µM; in [2], over 5 µM; in data set [3], 22 µM; in data set [4], 0.13 µM; in [7], 0.36 µM; in data set [8], over 5 µM. For the same molecule, the 50% inhibitory concentration (IC50) in data set [9] was 0.095 µM; in data set [11] it was over 5 µM; in [12] it was over 5 µM; in data set [14], 13 µM; in data set [15] it was over 5 µM; in data set [17], over 5 µM. Moreover, the solubility in data set [5] was found to be 0.012 mg/mL (≈ 25.7 µM). Also, the half-life in data set [6], in [10] and in data set [13] was under 10 min throughout. Moreover, in data set [16], the Papp stood at 10.4 nm/s.
With `Cc1c(Nc2c(C#N)cnc3sc(-c4csc(CN(C)C)c4)cc23)ccc2[nH]ccc12`, the 50% inhibitory concentration (IC50) in data set [4] was found to be 0.051 µM; in data set [14], 0.41 µM.
`Cc1c(Nc2c(C#N)cnc3sc(-c4ccc(CN(C)C)cc4)cc23)ccc2[nH]ccc12`: the values for the IC50 in data set [4] and in data set [14] were 0.088 µM and 0.1 µM, respectively.
With `COc1ccccc1-c1cc2c(Nc3ccc4[nH]ccc4c3C)c(C#N)cnc2s1`, the figures for the IC50 in data set [4], in [18] and in [14] were 0.25 µM, 0.023 µM and 0.31 µM, respectively. In the data set listed under Homo sapiens, the Ratio IC50 came to 10.
Consider `Cc1c(Nc2c(C#N)cnc3sc(-c4cncc(CN(C)C)c4)cc23)ccc2[nH]ccc12`, for which the IC50 in [4] was 0.17 µM; in data set [18], 0.084 µM; in data set [14], 2.2 µM.
As to `Cc1c(Nc2c(C#N)cnc3sc(-c4cccc(CN(C)C)c4)cc23)ccc2[nH]ccc12`, the Ratio IC50 in the data set listed under Homo sapiens came out at 4. This molecule returned an IC50 in [14] of 0.52 µM.
`Cc1ccc(CN(C)C)cc1-c1cc2c(Nc3ccc4[nH]ccc4c3C)c(C#N)cnc2s1`: the IC50 came out at 0.41 µM in data set [4] and 0.23 µM in data set [14]. Moreover, the Ratio IC50 in the data set listed under Homo sapiens stood at 4.
Take `Cc1c(Nc2c(C#N)cnc3sc(-c4ccccc4CN(C)C)cc23)ccc2[nH]ccc12`: the IC50 in [4] turned out to be 0.38 µM; in [14], 37 µM.
In the case of `CCOc1ccc(CN(C)C)cc1-c1cc2c(Nc3ccc4[nH]ccc4c3C)c(C#N)cnc2s1`, the results for the IC50 in data set [4], in data set [18] and in data set [14] were 0.082 µM, 0.0092 µM and 0.074 µM, respectively. In addition, the Ratio IC50 in the data set listed under Homo sapiens turned out to be 9.
Consider `N#Cc1cnc2sc(-c3ccccc3)cc2c1Nc1ccc2[nH]ccc2c1`, for which inhibition in data set [18] was half-maximal at 0.052 µM (IC50).
With `COc1ccc(CN(C)C)cc1-c1cc2c(Nc3ccc4[nH]ccc4c3C)c(C#N)cnc2s1`, the IC50 is 0.024 µM in data set [4], 0.0087 µM in [18], 0.023 µM in data set [14] and 0.006 µM in [19].
On to `COc1c(CN(C)C)cccc1-c1cc2c(Nc3ccc4[nH]ccc4c3C)c(C#N)cnc2s1`, for which the IC50 stood at 0.027 µM in data set [4] and 1.7 µM in data set [14]. Besides, the Ratio IC50 in the data set listed under Homo sapiens amounted to 2.
